Key:
LNCaP = experiment: MTT cytotoxic assay, LNCaP; format: cell-based, human
Method: (§1) Two human prostate cancer cell lines LNCaP and PC3 are maintained in RPMI1640 (Sigma Chemical Company, St. Louis, Mo., USA) supplemented with 10% fetal bovine serum (HyClone). Hepatocellular carcinoma cell line Hep G2, epithelial cervical cancer cell line HeLa and nasopharyngeal carcinoma cell line CNE are maintained in DMEM (Invitrogen) supplemented with 10% new-born calf serum (Gibco), 100 U/ml penicillin and 100 μg/ml streptomycin (Invitrogen). All cancer cells are maintained in a humidified atmosphere containing 5% CO2 at 37° C.
(§2) Different cancer cells are seeded in a 96-well plate and pre-incubated for 24 hours before treatment with Guttiferone F (0-50 μM). After 48 h of treatment, 10 μl of MTT solution (5 mg/ml) (Sigma Chemical Company, St. Louis, Mo., USA) are added to each well and incubated for 4 h. The resulting crystals are dissolved in DMSO. The controls include native cells and medium only. The spectrophotometric absorbance at 570 nm is measured using a microplate reader (Synergy HT, Bio-Tek Instruments Inc., Winooski, Vt., USA). The percentage cytotoxicity is calculated by the formula: Percentage cytotoxicity (cell death)=[1-(absorbance of experimental wells/absorbance of control wells)]×100%.

PC-3 = experiment: MTT cytotoxic assay, PC-3; format: cell-based; settings: Homo sapiens, 48 h of treatment
Method: as §1, §2

Hep G2 = experiment: MTT cytotoxic assay, Hep G2; format: cell-based; settings: Homo sapiens, HepG2, 48 h of treatment
Method: as §1, §2

HeLa = experiment: MTT cytotoxic assay, HeLa; format: cell-based; settings: Homo sapiens, 48 h of treatment
Method: as §1, §2

LNCaP cells [1] = experiment: Flow cytometry (PI, FACS) sub-G1 apoptosis; format: cell-based, human; settings: 10 μM, serum-free medium, 24 h and 48 h
Method: Based on the result of the above MTT assay on prostate cancer cell lines, LNCaP cells and 10 μM of Guttiferone F are selected for studying the effect of Guittiferone F on apoptosis of human prostate cancer cells. Before that, LNCaP cells are treated with Guttiferone F at the concentration of 10 μM. Cells are trypsinized and fixed in ice-cold 100% methanol overnight at 4° C. Cells are washed, stained with propidium iodide (PI) for overnight, and subjected to fluorescence activated cell sorting (FACS) analysis on a FAC Scan flow cytometer (BD PharMingen, USA). Data are analyzed using the WinMID software.
To detect the apoptosis, sub-G1 phase cells were measured. Such cells are usually considered to be the result of apoptotic DNA fragmentation. The DNA is degraded by cellular endonucleases, during apoptosis. Therefore, nuclei of apoptotic cells contain less DNA than nuclei of healthy G0/G1 cells, resulting in a sub-G1 peak in the fluorescent histogram that may be used to determine the relative amount of apoptotic cells.

LNCaP cells [2] = experiment: Hoechst 33258 / MitoTracker Red confocal microscopy; format: cell-based, human; settings: treatment for 12 h or 24 h, laser confocal microscopy
Method: Hoechst is depicted as blue in the first column of images while MitoTracker Red is depicted as red in the second column of images; double stain of Hoechst 33258 and MitoTacker Red is shown in the third column of images, in which the dotted square in each image represents the area where the part is enlarged; the corresponding enlarged area of the image from the third column is shown in the fourth column.
LNCaP cells (2×10^5) are seeded on 35 mm culture dish and incubated 24 h to allow attachment. After the different treatment of Guttiferone F for 12 h or 24 h, the medium is removed from the dish and the staining solution (50 μg/ml Hoechst 33258 and 1 ng/ml MitoTracker Red in PBS) is added. The fluorescence of the bound dyes is analyzed using a laser scanning confocal microscope (FV10i, Olympus Corporation, Japan).

PC3 cells [3] = experiment: PC3 xenograft nude mouse model A, intratumoral injection; format: in vivo, nude mice; settings: intratumoral injection every two days for 20 days; 20 μM 3 times, then 100 μM; FIG. 4, p<0.05
Method: A total of 1×10^6 PC3 cells suspended in 100 μl of PBS and 100 μl of Matrigel (BD Biosciences, Bedford, Mass.) are inoculated subcutaneously (s.c.) into the right flank of six 4-week-old male nude mice. Drug injections are made once the tumors reach an average volume of about 100 mm^3. Mice are divided randomly into two groups of 3 mice in each group and subjected to intratumoral injection of vehicle (control) or […] Guttiferone F every two days for 20 days. (After 20 μM GF for 3 times, the dosage is increased to 100 μM GF). Tumor volume is measured by calipers and calculated by V=L×W^2/2 at different time intervals. For intratumoral injection, […] Guttiferone F is prepared in 5% dimethyl sulfoxide, 5% tween 80, and 90% PBS.

PC3 cells [4] = experiment: PC3 xenograft nude mouse model B, intraperitoneal injection 10 mg/kg; format: in vivo, nude mice; settings: intraperitoneal injection 10 mg/kg every two days for 18 days; FIG. 5
Method: A total of 1×10^6 PC3 cells suspended in 100 μl of PBS and 100 μl of Matrigel are inoculated subcutaneously into the right flank of […] 4-week-old male nude mice. Drug injections are made once the tumors reach an average volume of about 200 mm^3. Mice are divided randomly into two groups of 7 for each group and subjected to intraperitoneal injection of vehicle or 10 mg/kg Guttiferone F every two days for 18 days. Tumor volume is measured by calipers and calculated by V=L×W^2/2. For intratumoral injection, Guttiferone F is prepared in 5% dimethyl sulfoxide, 5% tween 80, and 90% PBS.

PC3 cells [5] = experiment: PC3 xenograft BALB/c nude mice, intraperitoneal GF with or without caloric restriction; format: in vivo; settings: i.p. 20 mg/kg normally fed, or 10 mg/kg with caloric restriction, versus control; FIG. 6, p<0.01
Method: Four-week-old male BALB/c nude mice from the Experimental Animal Center of Chinese Academy of Science (Shanghai, China) are used in this example. Approximately 1×10^6 PC3 cells suspended in 100 μl of PBS and 100 μl of Matrigel are injected subcutaneously into the right side of the animals. One week later, 28 mice bearing tumors around 50 mm^3 in volume are randomly divided into four groups (n=7 per group): Group 1: Control (normally fed, receiving daily i.p. vehicle), Group 2: Caloric restriction (fed with 70% of their normal food intake, receiving daily i.p. vehicle), Group 3: GF (normally fed, receiving daily i.p. 20 mg/kg of GF), and Group 4: GF+caloric restriction (calorie-restricted mice receiving daily i.p. 10 mg/kg of GF). Mice are administered via intraperitoneal injection of vehicle (control) in a form of solvent (0.5% DMSO, 0.5% Tween-80 in saline) and GF at the dose of 10 mg/kg or 20 mg/kg in 200 μl vehicle once every other day. […] Using the conversion formula between animal dose and human dose taught in Regan-Shaw et al. (2007), the daily human dose of GF through intraperitoneal injection is about 1.62 mg/kg to 2.4 mg/kg (corresponding to 20 mg/kg of GF for mouse); the daily human dose of GF under calorie restriction is at least in a range of 0.81 mg/kg to 1.2 mg/kg (corresponding to 10 mg/kg of GF for mouse).

Question: Which IC50 (LNCaP; Homo sapiens, LNCaP, MTT, 48 h of treatment) does the source give for `C=C(C)[C@H](CC=C(C)C)C[C@@]12C[C@@H](CC=C(C)C)C(C)(C)[C@@](CC=C(C)C)(C(=O)C(C(=O)c3ccc(O)c(O)c3)=C1O)C2=O` [Guttiferone F] here?
Answer: 5.17 ± 0.2 µM

Question: And the “selectivity between cell lines in MTT assay” value (LNCaP; prostate cancer cell lines versus other cell lines, Table 1)?
Answer: more specific to human prostate cancer than the others

Question: And the IC50 (PC-3)?
Answer: 12.6 ± 3.01 µM

Question: What about the IC50 (Hep G2) of the same compound?
Answer: 32.9 ± 1.56 µM

Question: And the IC50 (HeLa)?
Answer: 13.1 ± 1.32 µM

Question: What about the “apoptosis (sub-G1 phase cells)” value (LNCaP cells [1]) of the same compound?
Answer: induce LNCaP cell death by apoptosis significantly

Question: What about the “change in mitochondria and nucleus DNA” value (LNCaP cells [2]) of the same compound?
Answer: DNA fragmentation and mitochondria focus are visualized

Question: What about the “tumor growth (tumor volume)” value (PC3 cells [3]) of the same compound?
Answer: the growth of tumor is inhibited significantly after 14 days

Question: What about the “tumor growth (tumor volume)” value (PC3 cells [4]) of the same compound?
Answer: the growth of tumor is not inhibited significantly in 18 days

Question: What about the “tumor growth (tumor volume)” value (PC3 cells [5]) of the same compound?
Answer: tumor growth is significantly less prominent

From patent US9408811B2, “Pharmaceutical composition comprising guttiferone F for the treatment of prostate cancer” (Hong Kong Baptist University, priority 2013, dated 2016)
